Test: gradient 5% acetonitrile 3 min, to 50% in 2 min, to 85% in 15 min, held 3 min, 100 µL/min
Settings: column: Zorbax Extend-C18 2.1 x 50 mm; eluents: water / acetonitrile, 0.1% formic acid
Summary of the method: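 Retention times of pure standards were taken from adduct peaks that were selected by computer and manually inspected. Over 3 months, mixtures of ~100 molecules were run by HPLC–quadrupole time-of-flight mass spectrometry in positive and negative ionization mode. The Zorbax Extend-C18 column (2.1 × 50 mm, 1.8 μm) ran at 100 μL/min in water and acetonitrile, each containing 0.1% formic acid, with 40 μL dead volume and 900 μL dwell volume.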

O=C(c1cccc(F)c1)N1CCC(n2nc(-c3ccsc3)ccc2=O)CC1
RP-LC retention time: 807 s

CCn1ccc2sc(C)c(C(=O)NCCCN3CCCC3=O)c2c1=O
RP-LC retention time: 594 s

Cc1ccc(NC(=O)Cn2c(N3CCc4ccccc4C3)nc(C)cc2=O)cc1
RP-LC retention time: 810 s

COc1ccc(Cl)cc1NC(=O)c1cc(C)n2nc(C)cc2n1
RP-LC retention time: 1160 s

COc1ccc(CNC(=O)c2cn(C)nc2S(=O)(=O)N2CCC(C)CC2)cc1
RP-LC retention time: 904 s

CCOCCCNC(=O)C1CCCN(S(=O)(=O)c2ccc3c(ccn3C)c2)C1 (centres undefined)
RP-LC retention time: 788 s

Cn1cc2c3c(cccc31)CN(C(=O)Nc1ccccc1C(F)(F)F)CC2
RP-LC retention time: 978 s

COC(=O)c1c(-c2ccc(Cl)cc2)noc1N1CCOCC1
RP-LC retention time: 968 s

O=c1c(=O)n(-c2ccccc2)ccn1Cc1nc(-c2ccc(F)c(Cl)c2)no1
RP-LC retention time: 894 s

CN1CCN(C(=O)c2csc(N3CCN(c4cccc(Cl)c4)CC3)n2)CC1
RP-LC retention time: 690 s

Cc1ccc(N2C(=O)C3N=NN(Cc4nc(-c5ccccc5Br)no4)C3C2=O)cc1C (centres undefined)
RP-LC retention time: 1030 s

CCN1C(=O)COc2ccc(-c3noc(-c4cc(C)cc(C)c4)n3)cc21
RP-LC retention time: 1330 s

CCS(=O)(=O)N1CCCN(C2=NS(=O)(=O)C(c3ccc(C)c(C)c3)=C2C)CC1
RP-LC retention time: 872 s

Cc1cc(-c2nnc(-c3ccc(F)cc3)o2)c(C)n1CC(=O)Nc1ccc(F)cc1
RP-LC retention time: 964 s

Cc1nc(-c2cccc(NC(=O)CCn3nnc4ccccc4c3=O)c2)cs1
RP-LC retention time: 739 s

CC(C)(C)c1ccc(S(=O)(=O)N2CCCCC2C(=O)N2CCN(c3ccc(F)cc3)CC2)cc1 (centres undefined)
RP-LC retention time: 1230 s

CCCc1noc(-c2cccnc2N2CCCN(Cc3ccc(F)cc3)CC2)n1
RP-LC retention time: 729 s

COc1cccc(CNC(=O)N2CCCC2c2cc(C(C)C)no2)c1 (centres undefined)
RP-LC retention time: 836 s

O=C(CN1C(=O)NC(c2ccc(Cl)cc2)C2=C1COC2=O)NCc1ccccc1Cl (centres undefined)
RP-LC retention time: 811 s

CC(C)C(=O)NCCc1csc(C2CCCN(C(=O)c3cc4ccccc4[nH]3)C2)n1 (centres undefined)
RP-LC retention time: 803 s

COC(=O)c1cc(C(=O)OC)cc(-n2ccc3nc(C)c(C(=O)OC)cc3c2=O)c1
RP-LC retention time: 844 s

O=C(Nc1cccc(F)c1)C(=O)c1ccc[nH]1
RP-LC retention time: 846 s

O=c1c2cc(-c3cccs3)nn2cnn1Cc1nc(-c2ccc(F)cc2)no1
RP-LC retention time: 1040 s

CCS(=O)(=O)N1CC(=O)N(c2ccc(Cl)cc2)C(C)(C(=O)NC2CCCCCCC2)C1 (centres undefined)
RP-LC retention time: 993 s

CNC(=O)N1CCCC(c2cccc(C(=O)N3CCN(c4ccccc4F)CC3)c2)C1 (centres undefined)
RP-LC retention time: 834 s

CCc1cc(=O)n(Cc2ccccc2C#N)c(N2CCCC2)n1
RP-LC retention time: 696 s

CC1CCN(C(=O)C2CCN(c3cncnc3N3CCN(C)CC3)CC2)CC1
RP-LC retention time: 558 s

Cc1oc(-c2ccc(C(=O)NCCN(C)C)cc2)nc1CS(=O)c1ccccc1 (centres undefined)
RP-LC retention time: 590 s

CCCCC(=O)Nc1nnc(SCc2nnc(-c3ccccc3)o2)s1
RP-LC retention time: 854 s

CCN1CCCn2cc(S(=O)(=O)Nc3ccc(OC)cc3)cc2C1=O
RP-LC retention time: 680 s

O=C1CC(NC(=O)c2cc(C3CC3)on2)CN1 (centres undefined)
RP-LC retention time: 563 s

Cc1ccc(S(=O)(=O)N2CCC3(CC2)NCCN=C3NCc2cccc(F)c2)c(C)c1
RP-LC retention time: 750 s

Cc1ccc(CNC(=O)C2(C)Oc3cccnc3NC2=O)cc1 (centres undefined)
RP-LC retention time: 702 s

CC(C(=O)N1CCCN(c2nc3cccnc3o2)CC1)c1ccccc1 (centres undefined)
RP-LC retention time: 718 s

COc1ccccc1-c1nc(Cc2noc(Cc3ccc(F)cc3)n2)c(C)o1
RP-LC retention time: 1000 s

O=C(Nc1ccc(OCc2nnc(-c3ccc(Cl)cc3)o2)cc1)c1ccccn1
RP-LC retention time: 990 s

Nc1ccc(N2C(=O)c3ccccc3C2=O)c(Cl)c1
RP-LC retention time: 884 s

COc1cc2nc(C(=O)N3CCCCC3)cc(Nc3ccc(C(C)C)cc3)c2cc1OC
RP-LC retention time: 832 s

Cc1ccc(Cn2nc(C(=O)NCc3ccco3)ccc2=O)cc1
RP-LC retention time: 788 s

COc1cc(NC(=O)N2CCN(c3cc(C)nc(N4CCCC4)n3)CC2)cc(OC)c1OC
RP-LC retention time: 634 s

CC(C)n1cnc2cc(CNC(=O)Cc3ccsc3)ccc21
RP-LC retention time: 582 s

COc1cccc(-n2c(N3CCCC(C(=O)Nc4ccc(Cl)cc4)C3)nc3ccsc3c2=O)c1 (centres undefined)
RP-LC retention time: 1020 s

COC(=O)c1c(C)c(C(=O)C(C)N(Cc2ccc(F)cc2)C(=O)C2CCCC2)c(C)n1C (centres undefined)
RP-LC retention time: 1090 s

COc1cccc(N2C(=O)Nc3ccccc3C2(O)C(=O)N2CCN(c3ccccn3)CC2)c1 (centres undefined)
RP-LC retention time: 603 s

CN(C)S(=O)(=O)N1CCC(n2c(Cc3ccccc3)nn(C)c2=O)CC1
RP-LC retention time: 748 s

Cc1cccc(-c2nc(Cn3nnc(-c4nc(-c5cccnc5)no4)c3C)c(C)o2)c1
RP-LC retention time: 1060 s

COc1cc(NC(=O)C2(C)CCCCC(=O)N2)cc(OC)c1 (centres undefined)
RP-LC retention time: 612 s

O=C(NCC1CCOCC1)c1ccccc1Br
RP-LC retention time: 671 s

Cc1ccc(-n2nc3c(=O)n(CCCC(=O)NC4CC4)nc(C)c3c2C)cc1
RP-LC retention time: 717 s

C[C@@H]1CN(C(=O)c2ccoc2)C[C@H]1c1nc(-c2ccncc2)no1
RP-LC retention time: 678 s

Cc1cc(N)n(Cc2ccccc2)n1
RP-LC retention time: 569 s

Cc1nc(-c2cccc(NC(=O)c3ccc(N4CCCC4)nn3)c2)cs1
RP-LC retention time: 676 s

Cc1nc(-c2cccnc2)nc2c1CCC(=O)N2Cc1cccnc1
RP-LC retention time: 560 s

COc1cc(OC)c(NC(=O)Nc2c(-c3ccccc3)nc3ccccn23)cc1Cl
RP-LC retention time: 682 s

O=C(C1CCCN(c2nnc3ccccn23)C1)N1CCN(c2ccccn2)CC1 (centres undefined)
RP-LC retention time: 514 s

Cc1csc(-c2ccc(N3CCN(C(=O)c4cccs4)CC3)nc2)n1
RP-LC retention time: 781 s

Cn1cc(CC(=O)NCc2ccc3c(c2)OCO3)c2cccnc21
RP-LC retention time: 648 s

CC(Oc1cccc(Cl)c1)C(=O)N1CCN(c2cc(-c3cccs3)[nH]n2)CC1 (centres undefined)
RP-LC retention time: 888 s

CCC(C)N(CC(=O)N1CCc2sccc2C1COc1ccc(Cl)cc1)C(=O)COC (centres undefined)
RP-LC retention time: 955 s

CCOC(=O)N1CCN(/C=C2\Oc3c(ccc(O)c3C)C2=O)CC1
RP-LC retention time: 637 s

Cn1cnc(S(=O)(=O)N2CCC(C(=O)Nc3cccc(Br)c3)CC2)c1
RP-LC retention time: 741 s

Cn1nc(-c2nc(C3CC3)no2)c2c1CCN(C(=O)c1cc(F)ccc1F)C2
RP-LC retention time: 860 s

CCOC(=O)c1cc(S(=O)(=O)N2CCCC2C(=O)NC2CCCCCC2)cn1C (centres undefined)
RP-LC retention time: 968 s

Cc1sc2ncnc(SCc3ccco3)c2c1C
RP-LC retention time: 1150 s

CC(=O)N1CCCC1c1nc(C2CN(C(=O)c3ccsc3)C2)no1 (centres undefined)
RP-LC retention time: 629 s

CCc1ccc(OCc2nc(CCN(C)C(=O)c3ccco3)no2)cc1
RP-LC retention time: 910 s

Cc1cccc(-c2nc(Cn3nnc(C(=O)NCc4ccc(C(F)(F)F)cc4)c3C)c(C)o2)c1
RP-LC retention time: 1210 s

CCOCCCNC(=O)c1ccc(OCc2nnc(C(=O)Nc3ccccc3F)s2)cc1
RP-LC retention time: 853 s

Cc1ccc(-c2nnc(-c3ccccc3Cl)o2)cc1S(=O)(=O)N1CCCCC1
RP-LC retention time: 1200 s

Cc1nnc2ccc(S(=O)(=O)Nc3ccc(Cl)cc3)cn12
RP-LC retention time: 711 s

Cc1ccc(N2CC(c3noc(-c4cc(Cl)ccc4F)n3)CC2=O)cc1 (centres undefined)
RP-LC retention time: 1090 s

Cn1c(=O)c2ccnn2c2ccc(C(=O)NCc3ccccc3)cc21
RP-LC retention time: 665 s

CN(C)c1cccc(C(=O)NC2CCN(c3cc(-c4ccc(Cl)cc4)[nH]n3)C2)c1 (centres undefined)
RP-LC retention time: 865 s

Cc1ccc(OCc2nc(-c3cccc(-c4ccnn4C)c3)no2)cc1
RP-LC retention time: 1130 s

O=C(NCCN1CCCCC1)C1CCN(c2nccnc2Sc2ccccc2)CC1
RP-LC retention time: 666 s

Cc1cc(C)nc(Sc2ccc(S(C)(=O)=O)cc2[N+](=O)[O-])n1
RP-LC retention time: 750 s

CCSc1nnc(NC(=O)CSc2ncnc3ccccc23)s1
RP-LC retention time: 733 s

CCC(C)NC(=O)CCNc1c(-c2ccc(C)cc2)nc2cnccn12 (centres undefined)
RP-LC retention time: 672 s

O=C(Nc1cccc(F)c1)N1CCC2(C1)C(=O)Nc1ccccc12 (centres undefined)
RP-LC retention time: 730 s

Cc1ccc(CNC(=O)C2CCN(Cc3cc4ccccc4n3Cc3ccccc3C)CC2)o1
RP-LC retention time: 800 s

O=C(NC1CCCCCC1)C1CCN(S(=O)(=O)c2cc(-c3noc(C4CCC4)n3)cs2)CC1
RP-LC retention time: 1110 s

O=S(=O)(c1cccc(-c2nc(-c3ccccc3)no2)c1)N1CCc2ccccc21
RP-LC retention time: 1320 s

CC1CCCN(CC2CCN(S(=O)(=O)Cc3cc(F)cc(F)c3)CC2)C1 (centres undefined)
RP-LC retention time: 666 s

CC(C)NC(=O)CN1CCN(Cc2nc(-c3ccc(N4CCCC4)nc3)no2)CC1
RP-LC retention time: 541 s

O=c1c(=O)n(-c2ccccc2)ccn1Cc1nc(-c2cccc(Br)c2)no1
RP-LC retention time: 885 s

CCC(=O)N1CCc2cc(N3CC(C(=O)NCc4ccc(F)cc4)CC3=O)ccc21 (centres undefined)
RP-LC retention time: 725 s

CCCC(NC(=O)c1ccc(OC)c(OC)c1)C(=O)Nc1nc2ccccc2[nH]1 (centres undefined)
RP-LC retention time: 650 s

CC(C(=O)NCCCN(C)Cc1ccccc1)n1c(=O)c(C(F)(F)F)nc2ccccc21 (centres undefined)
RP-LC retention time: 725 s

O=C(C1CCN(c2ncnc3c2nc2n3CCCCC2)CC1)N1CCN(c2ccccn2)CC1
RP-LC retention time: 592 s

— the METLIN SMRT retention time set (Domingo-Almenara et al. 2019)
